Data taken from patent US11530223B2, “Spiro-lactam NMDA receptor modulators and uses thereof” (Aptinyx Inc., priority 2016, dated 2022).
Like-named read-outs stand apart in the source and are kept apart here. One block for each compound: values may come before it.

What was measured:
NMDAR2A = target: T1, NMDAR2A (Homo sapiens, UniProt Q12879); test: [3H]MK-801 binding in NMDAR2A expressing HEK cell membranes; format: biochemical; design: key to B: log EC50: 0=−; ≥1×10^−9 M (e.g., −8)=+; <1×10^−9 M (e.g., −10)=++; settings: 50 μM glutamate; for EC50: read-out: B: log EC50 (converted); for Emax: read-out: A: % maximal [3H]MK-801 binding relative to 1 mM glycine
T1 construct: expressed in transfected cells; host or cells: HEK cells (membrane extract)
Protocol: (§1) Assays were conducted as described by Moskal et al., “GLYX-13: a monoclonal antibody-derived peptide that acts as an N-methyl-D-aspartate receptor modulator,” Neuropharmacology, 49, 1077-87, 2005. These studies were designed to determine if the test compounds act to facilitate NMDAR activation in NMDAR2A, NMDAR2B, NMDAR2C or NMDAR2D expressing HEK cell membranes as measured by increases in [^3H]MK-801 binding.
(§2) In the assay, 300 μg of NMDAR expressing HEK cell membrane extract protein was preincubated for 15 minutes at 25° C. in the presence of saturating concentrations of glutamate (50 μM) and varying concentrations of test compound (1×10^−15M−1×10^−7M), or 1 mM glycine. Following the addition of 0.3 μCi of [^3H]MK-801 (22.5 Ci/mmol), reactions were again incubated for 15 minutes at 25° C. (nonequilibrium conditions). Bound and free [^3H]MK-801 were separated via rapid filtration using a Brandel apparatus.
(§3) In analyzing the data, the DPM (disintegrations per minute) of [^3H]MK-801 remaining on the filter were measured for each concentration of test compound or for 1 mM glycine. The DPM values for each concentration of a ligand (N=2) were averaged. The baseline value was determined from the best fit curve of the DPM values modeled using the GraphPad program and the log(agonist) vs. response (three parameters) algorithm was then subtracted from all points in the dataset. The % maximal [^3H]MK-801 binding was then calculated relative to that of 1 mM glycine: all baseline subtracted DPM values were divided by the average value for 1 mM glycine. The EC50 and % maximal activity were then obtained from the best fit curve of the % maximal [^3H]MK-801 binding data modelled using the GraphPad program and the log(agonist) vs. response (three parameters) algorithm.
(§4) The tables below summarize the results for the wild type […] NMDAR2A, NMDAR2B, NMDAR2C, and NMDAR2D, and whether the compound is not an agonist (−), is an agonist (+), or is a strong agonist (++), where column A is based on the % maximal [^3H]MK-801 binding relative to 1 mM glycine (−=0; <100%=+; and >100%=++); and column B is based on log EC50 values (0=−; ≥1×10^−9 M (e.g., −8)=+; and <1×10^−9 M (e.g., −10)=++).

NMDAR2B = target: T2, NMDAR2B (Homo sapiens, UniProt Q13224); test: [3H]MK-801 binding in NMDAR2B expressing HEK cell membranes; format: biochemical; design: key to B: log EC50: 0=−; ≥1×10^−9 M (e.g., −8)=+; <1×10^−9 M (e.g., −10)=++; settings: 50 μM glutamate; for EC50: read-out: B: log EC50 (converted); for Emax: read-out: A: % maximal [3H]MK-801 binding relative to 1 mM glycine
T2 construct: expressed in transfected cells; host or cells: HEK cells (membrane extract)
Protocol: as §1, §2, §3, §4

NMDAR2D = target: T3, NMDAR2D (Homo sapiens, UniProt O15399); test: [3H]MK-801 binding in NMDAR2D expressing HEK cell membranes; format: biochemical; design: key to B: log EC50: 0=−; ≥1×10^−9 M (e.g., −8)=+; <1×10^−9 M (e.g., −10)=++; settings: for A: % maximal [3H]MK-801 binding relative to 1 mM glycine: c3, taken as NMDAR2D
T3 construct: expressed in transfected cells; host or cells: HEK cells (membrane extract)
Protocol: as §1, §2, §3, §4

Sprague Dawley rats = test: Porsolt forced swim test; format: in vivo; settings: 0.1 mg/kg; for % reduction in float time: relative to vehicle group
Protocol: A non-clinical in vivo pharmacology study (Porsolt assay) was performed to measure antidepressant-like effects. A negative control (0.5% sodium carboxymethyl cellulose in 0.9% sterile saline vehicle) and a positive control (fluoxetine) are shown for comparison against test compound. The study allowed for the evaluation of the effects of each compound on the Porsolt forced swim test as assessed by the rats' response (reduced floating time) during a 5-minute swimming test.
Male 2-3 month old Sprague Dawley rats were used (Harlan, Indianapolis, Ind.). Rats were housed in Lucite cages with aspen wood chip bedding, maintained on a 12:12 light:dark cycle (lights on at 5 AM), and given ad libitum access to Purina lab chow (USA) and tap water throughout the study.
The Porsolt forced swim test adapted for use in rats was performed as described by Burgdorf et al., (The long-lasting antidepressant effects of rapastinel (GLYX-13) are associated with a metaplasticity process in the medial prefrontal cortex and hippocampus. Neuroscience 308:202-211, 2015). Animals were placed in a 46 cm tall×20 cm in diameter clear glass tube filled to 30 cm with tap water (23±1° C.) for 15 min on the first day (habituation) and 5 min on the subsequent test day. Positive control fluoxetine was dosed 3 times (24 h, 5 h and 1 h) prior to testing. Animals were tested 1 h or 24 h post-dosing with the test compounds or vehicle. Animals received a 15 min habituation session 1 day before the 5 min test. A subset of compounds tested at 1 h post-dosing were retested at 1 wk post-dosing in the same sets of animals. Water was changed after every other animal. Animals were videotaped, and floating time as defined as the minimal amount of effort required to keep the animals head above water was scored offline by a blinded experimenter with high inter-rater reliability (Pearson's r>0.9).
Each compound tested at dose level shown. Significance vs. vehicle group for each experiment is marked. […] A compound marked “No” was not statistically significant from vehicle. Data was averaged for test compound and vehicle groups (N approximately 8 per group) and the percent reduction in floating for group treated with test compound relative to group treated with vehicle is shown.

IV pharmacokinetics = format: in vivo; settings: Sprague Dawley rats; for C0: normal saline (first four compounds: 5% NMP, 5% Solutol HS, 90% normal saline); for Vd: read-out: Vss
Protocol: Sprague Dawley rats were dosed intravenously using a normal saline formulation containing 2 mg/kg of the compounds identified in the below table (except for the first four compounds that were delivered in 5% NMP, 5% Solutol® HS and 90% normal saline formulation). The table below summarizes the results of the IV pharmacokinetics.

[1] = oral pharmacokinetics (plasma, brain, CSF); format: in vivo; settings: Sprague Dawley rats, per os 10 mg/kg; for Tmax: normal saline (first four compounds: 5% NMP, 5% Solutol HS, 90% normal saline)
Protocol: Plasma, brain, and CSF samples were analyzed at various time points over a 24 hour period.

[2] = 1 h post-dose, floating time in 5 min test
[3] = Sprague Dawley, rat, in vivo, iv, 2 mg/kg
[4] = Sprague Dawley, rat, in vivo, iv, 2 mg/kg, read-out: C0
[5] = Sprague Dawley, rat, plasma, po, 10 mg/kg
[6] = Sprague Dawley, rat, plasma, po, 10 mg/kg, read-out: Tmax
[7] = Sprague Dawley, rat, plasma, po, 10 mg/kg, plasma, read-out: Cmax

T3 sequence (O15399 28-1336, species assumed, other chains not shown): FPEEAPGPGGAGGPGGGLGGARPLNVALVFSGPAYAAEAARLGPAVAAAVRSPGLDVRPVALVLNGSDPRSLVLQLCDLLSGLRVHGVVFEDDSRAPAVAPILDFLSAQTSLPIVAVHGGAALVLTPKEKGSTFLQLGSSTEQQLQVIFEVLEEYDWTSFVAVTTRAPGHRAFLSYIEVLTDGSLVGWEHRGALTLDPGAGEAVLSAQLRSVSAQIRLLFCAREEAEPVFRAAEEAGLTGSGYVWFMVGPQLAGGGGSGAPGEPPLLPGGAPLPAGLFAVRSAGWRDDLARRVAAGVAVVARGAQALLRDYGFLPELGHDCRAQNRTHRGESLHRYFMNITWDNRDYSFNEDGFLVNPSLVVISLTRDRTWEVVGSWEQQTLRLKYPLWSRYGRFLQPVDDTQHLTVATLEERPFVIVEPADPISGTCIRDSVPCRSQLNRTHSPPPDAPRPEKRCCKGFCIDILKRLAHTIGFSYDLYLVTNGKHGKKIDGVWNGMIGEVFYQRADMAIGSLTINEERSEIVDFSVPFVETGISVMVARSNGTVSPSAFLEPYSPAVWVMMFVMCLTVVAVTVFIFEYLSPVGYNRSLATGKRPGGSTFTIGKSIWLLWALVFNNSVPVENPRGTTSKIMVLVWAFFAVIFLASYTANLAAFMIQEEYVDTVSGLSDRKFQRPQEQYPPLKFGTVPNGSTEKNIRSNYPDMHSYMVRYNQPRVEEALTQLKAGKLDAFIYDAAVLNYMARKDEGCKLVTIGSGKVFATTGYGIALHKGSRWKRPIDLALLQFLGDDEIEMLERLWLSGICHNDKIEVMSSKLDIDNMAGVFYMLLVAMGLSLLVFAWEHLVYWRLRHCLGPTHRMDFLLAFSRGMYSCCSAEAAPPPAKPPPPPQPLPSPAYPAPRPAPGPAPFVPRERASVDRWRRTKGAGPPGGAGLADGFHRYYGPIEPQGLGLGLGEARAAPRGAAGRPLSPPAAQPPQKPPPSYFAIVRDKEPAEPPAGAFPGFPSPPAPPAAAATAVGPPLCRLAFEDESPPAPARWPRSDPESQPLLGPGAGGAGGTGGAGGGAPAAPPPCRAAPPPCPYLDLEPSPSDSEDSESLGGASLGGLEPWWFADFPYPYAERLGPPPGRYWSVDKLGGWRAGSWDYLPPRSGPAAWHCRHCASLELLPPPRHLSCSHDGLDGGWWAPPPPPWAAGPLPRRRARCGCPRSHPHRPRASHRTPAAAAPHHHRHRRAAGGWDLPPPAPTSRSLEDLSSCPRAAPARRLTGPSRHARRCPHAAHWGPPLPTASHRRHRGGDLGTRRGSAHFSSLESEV
T2 sequence (Q13224 27-1484, species assumed, other chains not shown): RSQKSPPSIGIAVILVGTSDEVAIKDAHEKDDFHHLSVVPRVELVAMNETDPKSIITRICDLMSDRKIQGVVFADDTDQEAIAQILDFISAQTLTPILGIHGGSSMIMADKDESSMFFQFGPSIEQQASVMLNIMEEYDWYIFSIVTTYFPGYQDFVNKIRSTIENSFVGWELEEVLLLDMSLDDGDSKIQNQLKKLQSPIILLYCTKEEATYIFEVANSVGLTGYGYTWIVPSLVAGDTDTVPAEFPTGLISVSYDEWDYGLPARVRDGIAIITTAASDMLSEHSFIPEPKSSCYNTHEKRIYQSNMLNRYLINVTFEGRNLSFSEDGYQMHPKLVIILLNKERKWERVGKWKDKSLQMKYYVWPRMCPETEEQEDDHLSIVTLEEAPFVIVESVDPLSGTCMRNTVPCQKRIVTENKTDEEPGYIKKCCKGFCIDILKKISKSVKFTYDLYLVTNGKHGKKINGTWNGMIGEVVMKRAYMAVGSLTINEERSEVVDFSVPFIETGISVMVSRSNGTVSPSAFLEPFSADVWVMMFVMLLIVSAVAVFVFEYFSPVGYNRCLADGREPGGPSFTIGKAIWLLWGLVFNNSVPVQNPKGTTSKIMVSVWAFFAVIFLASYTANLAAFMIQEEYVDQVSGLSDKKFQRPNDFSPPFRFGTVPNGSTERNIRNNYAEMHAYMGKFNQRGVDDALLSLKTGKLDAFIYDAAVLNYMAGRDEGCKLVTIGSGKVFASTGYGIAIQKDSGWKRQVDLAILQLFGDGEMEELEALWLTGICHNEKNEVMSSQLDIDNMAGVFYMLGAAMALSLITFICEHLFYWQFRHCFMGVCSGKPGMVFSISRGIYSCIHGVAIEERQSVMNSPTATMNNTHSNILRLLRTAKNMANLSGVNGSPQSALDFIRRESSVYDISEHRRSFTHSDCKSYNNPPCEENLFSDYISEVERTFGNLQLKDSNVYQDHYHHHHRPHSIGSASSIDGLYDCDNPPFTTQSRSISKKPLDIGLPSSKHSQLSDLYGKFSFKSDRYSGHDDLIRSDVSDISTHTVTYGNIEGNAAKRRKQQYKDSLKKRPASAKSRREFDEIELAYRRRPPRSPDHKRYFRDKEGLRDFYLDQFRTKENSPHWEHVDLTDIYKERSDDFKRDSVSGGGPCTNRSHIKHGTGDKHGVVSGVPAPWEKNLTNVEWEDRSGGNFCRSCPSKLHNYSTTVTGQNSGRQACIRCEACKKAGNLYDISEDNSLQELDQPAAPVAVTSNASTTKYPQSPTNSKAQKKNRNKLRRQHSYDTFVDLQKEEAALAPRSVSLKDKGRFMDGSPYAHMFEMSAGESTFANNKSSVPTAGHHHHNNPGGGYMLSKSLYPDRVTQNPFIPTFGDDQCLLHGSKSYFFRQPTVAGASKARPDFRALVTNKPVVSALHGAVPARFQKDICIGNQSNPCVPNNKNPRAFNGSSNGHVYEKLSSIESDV
T1 sequence (Q12879 23-1464, species assumed, other chains not shown): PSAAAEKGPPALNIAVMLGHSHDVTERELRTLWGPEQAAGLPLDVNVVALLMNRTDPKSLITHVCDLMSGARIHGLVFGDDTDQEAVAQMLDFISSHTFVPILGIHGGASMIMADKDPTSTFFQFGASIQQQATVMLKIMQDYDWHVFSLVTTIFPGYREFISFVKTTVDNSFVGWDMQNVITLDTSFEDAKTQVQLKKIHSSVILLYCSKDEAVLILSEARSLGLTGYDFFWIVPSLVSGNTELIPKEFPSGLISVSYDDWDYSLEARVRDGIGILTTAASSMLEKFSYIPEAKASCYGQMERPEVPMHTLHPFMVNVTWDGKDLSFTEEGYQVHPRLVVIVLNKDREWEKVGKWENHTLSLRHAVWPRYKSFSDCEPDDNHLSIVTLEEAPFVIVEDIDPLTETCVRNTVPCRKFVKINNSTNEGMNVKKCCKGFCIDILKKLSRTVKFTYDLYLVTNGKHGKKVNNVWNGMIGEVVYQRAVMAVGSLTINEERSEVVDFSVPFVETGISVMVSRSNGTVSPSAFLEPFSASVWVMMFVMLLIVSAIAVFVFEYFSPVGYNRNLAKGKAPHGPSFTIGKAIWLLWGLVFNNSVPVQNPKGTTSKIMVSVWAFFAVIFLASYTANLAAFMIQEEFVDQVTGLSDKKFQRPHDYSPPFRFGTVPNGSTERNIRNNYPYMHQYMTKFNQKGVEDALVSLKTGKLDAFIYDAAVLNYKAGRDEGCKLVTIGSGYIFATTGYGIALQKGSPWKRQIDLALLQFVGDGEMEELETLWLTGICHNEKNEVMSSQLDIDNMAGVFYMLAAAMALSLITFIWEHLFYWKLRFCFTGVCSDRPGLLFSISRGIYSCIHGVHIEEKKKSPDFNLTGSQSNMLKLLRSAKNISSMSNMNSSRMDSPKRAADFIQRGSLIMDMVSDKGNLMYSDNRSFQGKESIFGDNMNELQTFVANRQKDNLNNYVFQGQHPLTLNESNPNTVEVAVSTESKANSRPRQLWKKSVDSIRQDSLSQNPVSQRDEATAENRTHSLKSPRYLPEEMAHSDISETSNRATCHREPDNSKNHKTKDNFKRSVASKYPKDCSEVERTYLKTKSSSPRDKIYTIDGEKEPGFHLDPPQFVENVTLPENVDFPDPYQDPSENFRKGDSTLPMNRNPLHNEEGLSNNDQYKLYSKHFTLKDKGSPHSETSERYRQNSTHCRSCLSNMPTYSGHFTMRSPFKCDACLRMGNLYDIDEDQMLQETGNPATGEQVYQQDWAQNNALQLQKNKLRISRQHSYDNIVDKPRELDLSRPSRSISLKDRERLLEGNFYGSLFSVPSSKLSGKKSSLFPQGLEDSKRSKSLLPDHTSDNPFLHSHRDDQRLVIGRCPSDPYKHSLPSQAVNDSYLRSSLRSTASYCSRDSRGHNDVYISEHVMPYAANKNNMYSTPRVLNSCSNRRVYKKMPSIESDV

Compound: O=C1NCCC12CCCCN2 (stereo not shown) [RG-602]
- A: % maximal [3H]MK-801 binding relative to 1 mM glycine (NMDAR2A): + (<100%=+)
- EC50 (NMDAR2A): < 1 nM
- A: % maximal [3H]MK-801 binding relative to 1 mM glycine (NMDAR2B): + (<100%=+)
- EC50 (NMDAR2B): < 1 nM
- A: % maximal [3H]MK-801 binding relative to 1 mM glycine (NMDAR2D; second part of table (r25-r35)): + (<100%=+)
- EC50 (NMDAR2D; second part of table (r25-r35), c4, taken as NMDAR2D, read-out: B: log EC50 (converted)): < 1 nM
- Significance vs. vehicle (Sprague Dawley rats; 1 wk post-dose): Yes (statistically significant (p<=0.05) from vehicle at dose level shown)
- % reduction in float time (Sprague Dawley rats; 1 wk post-dose): 55.5%
- Significance vs. vehicle (Sprague Dawley rats; [2]): Yes (statistically significant (p<=0.05) from vehicle at dose level shown)
- % reduction in float time (Sprague Dawley rats; 1 h post-dose): 71.1%

Compound: O=C1NCCC12CCNCC2 [RG-603]
- Emax (NMDAR2A): < 100%
- EC50 (NMDAR2A): ≥ 1 nM
- Emax (NMDAR2B): < 100%
- EC50 (NMDAR2B): < 1 nM
- AUC(0-t) (IV pharmacokinetics; [3]): 1570 ng·h/mL
- clearance (IV pharmacokinetics; [3]): 21.1 mL/min/kg
- half-life (IV pharmacokinetics; [3]): 59.4 min
- C0 (IV pharmacokinetics; [4]): 5190 ng/mL
- Vd (IV pharmacokinetics; [3]): 0.81 L/kg
- AUC(0-t) [1, 5]: 897 ng·h/mL
- bioavailability [1, 5]: 11%
- Tmax [1, 6]: 60 min
- Cmax [1, 7]: 311 ng/mL

- A: % maximal [3H]MK-801 binding relative to 1 mM glycine (NMDAR2A): − (−=0)
- B: log EC50 (NMDAR2A): −
- A: % maximal [3H]MK-801 binding relative to 1 mM glycine (NMDAR2B): + (<100%=+)
- EC50 (NMDAR2B): < 1 nM
- A: % maximal [3H]MK-801 binding relative to 1 mM glycine (NMDAR2D; second part of table (r25-r35)): − (−=0)
- B: log EC50 (NMDAR2D; second part of table, c4, taken as NMDAR2D): −
- AUClast (IV pharmacokinetics; intravenous 2 mg/kg): 804 ng·h/mL
- Cl (IV pharmacokinetics; intravenous 2 mg/kg): 41.29 mL/min/kg
- T1/2 (IV pharmacokinetics; intravenous 2 mg/kg): 20.4 min
- Vss (IV pharmacokinetics; intravenous 2 mg/kg): 0.91 L/kg
- C0 (IV pharmacokinetics; intravenous 2 mg/kg): 2303 ng/mL
- % F [1]: 48%
- AUClast [1]: 1933 ng·h/mL
- CSF Cmax [1]: 1077 ng/mL
- Brain Cmax [1]: 612 ng/mL
- Tmax [1]: 15 min
- Cmax ([1]; plasma): 2812 ng/mL
Compound: CC(C)(C)OC(=O)N1CCCCC12CCNC2=O (stereo not shown) [RG-606]

- B: log EC50 (NMDAR2A): −
- Emax (NMDAR2A): 0%
- B: log EC50 (NMDAR2B): −
- Emax (NMDAR2B): 0%
Compound: CC(C)C(=O)N1CCCCC12CCNC2=O (stereo not shown) [RG-609]

- B: log EC50 (NMDAR2A): −
- B: log EC50 (NMDAR2B): −
Compound: CC(C)C(=O)N1CCCCC12CCNC2=O (stereo not shown) [RG-610]

- B: log EC50 (NMDAR2A): −
- Emax (NMDAR2A): 0%
- B: log EC50 (NMDAR2B): −
- Emax (NMDAR2B): 0%
Compound: CC(C)(C)OC(=O)N1CCC2(CCNC2=O)CC1 [RG-619]

Compound: CC(=O)N1CCC2(CCNC2=O)CC1 [RG-621]
- Emax (NMDAR2A): < 100%
- EC50 (NMDAR2A): < 1 nM
- Emax (NMDAR2B): > 100%
- EC50 (NMDAR2B): < 1 nM
- AUC(0-t) (IV pharmacokinetics; [3]): 6230 ng·h/mL
- clearance (IV pharmacokinetics; [3]): 5.33 mL/min/kg
- half-life (IV pharmacokinetics; [3]): 103 min
- C0 (IV pharmacokinetics; [4]): 4760 ng/mL
- Vd (IV pharmacokinetics; [3]): 0.52 L/kg
- CSF Cmax [1]: 3654.37 ng/mL
- Brain Cmax [1]: 1977.29 ng/mL
- AUC(0-t) [1, 5]: 29100 ng·h/mL
- bioavailability [1, 5]: 93%
- Tmax [1, 6]: 34.8 min
- Cmax [1, 7]: 12000 ng/mL

- B: log EC50 (NMDAR2A): −
- Emax (NMDAR2A): 0%
- Emax (NMDAR2B): < 100%
- EC50 (NMDAR2B): < 1 nM
- AUC(0-t) (IV pharmacokinetics; [3]): 10500 ng·h/mL
- clearance (IV pharmacokinetics; [3]): 3.18 mL/min/kg
- half-life (IV pharmacokinetics; [3]): 239 min
- C0 (IV pharmacokinetics; [4]): 4130 ng/mL
- Vd (IV pharmacokinetics; [3]): 0.56 L/kg
- CSF Cmax [1]: 4727 ng/mL
- Brain Cmax [1]: 4317 ng/mL
- AUC(0-t) [1, 5]: 42600 ng·h/mL
- bioavailability [1, 5]: 81%
- Cmax [1, 7]: 10900 ng/mL
- Tmax ([1]; rat, plasma, po, read-out: Tmax): 25.2 min
Compound: CC(C)C(=O)N1CCC2(CCNC2=O)CC1 [RG-623]
- Significance vs. vehicle (Sprague Dawley rats; [2]): Yes (statistically significant (p<=0.05) from vehicle at dose level shown)
- % reduction in float time (Sprague Dawley rats; 1 h post-dose): 60.0%
- Significance vs. vehicle (Sprague Dawley rats; 24 h post-dose): Yes (statistically significant (p<=0.05) from vehicle at dose level shown)
- % reduction in float time (Sprague Dawley rats; 24 h post-dose): 52.9%

Compound: O=C1NCCC12CCCN2 (stereo not shown) [RX-1, 1,7-diazaspiro[4.4]nonan-6-one]
- B: log EC50 (NMDAR2A): −
- Emax (NMDAR2A): 0%
- B: log EC50 (NMDAR2B): −
- Emax (NMDAR2B): 0%

Compound: CC(=O)N1CCCC12CCNC2=O (stereo not shown) [RZ-403]
- A: % maximal [3H]MK-801 binding relative to 1 mM glycine (NMDAR2A): − (−=0)
- B: log EC50 (NMDAR2A): −
- A: % maximal [3H]MK-801 binding relative to 1 mM glycine (NMDAR2B): ++ (>100%=++)
- EC50 (NMDAR2B): < 1 nM

Compound: CC(=O)N1CCCC12CCNC2=O (stereo not shown) [RZ-404]
- A: % maximal [3H]MK-801 binding relative to 1 mM glycine (NMDAR2A): + (<100%=+)
- EC50 (NMDAR2A): < 1 nM
- A: % maximal [3H]MK-801 binding relative to 1 mM glycine (NMDAR2B): − (−=0)
- B: log EC50 (NMDAR2B): −

- A: % maximal [3H]MK-801 binding relative to 1 mM glycine (NMDAR2A): − (−=0)
- B: log EC50 (NMDAR2A): −
- A: % maximal [3H]MK-801 binding relative to 1 mM glycine (NMDAR2B): + (<100%=+)
- EC50 (NMDAR2B): < 1 nM
Compound: CC(C)C(=O)N1CCCC12CCNC2=O (stereo not shown) [RZ-406]
